Reference: patent US20120237614A1, “PEPTIDE ABLE TO DISRUPT THE PROTEIN COMPLEX BETWEEN THE HIS273 MUTADED P53 PROTEIN AND THE ONCOSUPPRESSIVE P73 PROTEIN IN TUMOR CELLS AND THERAPEUTIC USES THEREOF” (priority 2009, published 2012)
“Also recorded” adds a separate entry of the source.

Tests used:
[1] = system: HT29 (His-273) colon carcinoma cells; experiment: Transactivation test (pLUC-BAX) in Adriamycin treated HT29 cells; assay type: cell-based, human; details: 3 μM Adriamycin
Description: (§1) (A) In order to verify the SIMPI peptide specificity, independently from the cellular context, we tested SIMP1 peptides in some Adriamicyn treated colon carcinoma HT29 (His-273). cell lines. The cells have been transfected using a mixture containing lipofectamine, pLUC-BAX plasmid, β-galactosidase expression vector, SIMP1 and SIMP5M control peptides. 24 hours post-transfection, have been treated with 3 μM Adriamicyn. (B-C). Viability and inhibition assays have been carried out after transfection using SIMP1 and SIMP5M peptides in HT29 (colon cancer) and MDA-MB-468 (breast cancer) cell lines
SKBR3, HT-29, MDA-MB-468 cell lines have been transfected with Lipofectamine 2000 according to the supplier instructions (InVitrogen).
Cells (1.5×10^5) have been transiently transfected using SIMP peptides, expression plasmids and reporter constructs as internal controls for transfection efficiency. After the transfection, SKBR3, HT-29 and MDA-MB-468 have been incubated with 3 μM ADR over 24 hours. Cells have been washed with cold PBS and re-suspended in lysis buffer (Promega) and incubated for 10 min at room temp. Insoluble material has been centrifuged and luciferase activity has been determined using a commercial kit with a luminometer (Turner).

[2] = system: m-p53 His273 inhibition on p73 transcription activity; experiment: Transactivation test with pLUC-BAX reporter in transiently transfected H1299 cells; assay type: cell-based, human; details: peptides 20 μM each
Description: (A) MDA-MB-468 (5×10^5) cells have been transfected using a lipofectamine containing mixture, βgal expression vector, which normalizes transfection efficiency, and SIMPI peptide (20 μM). Total cellular lysates (1 mg), have been immunoprecipitated with antibodies directed against p73 and immunoglobulins (IgG). Immunoprecipitates and an aliquot (50 μg) of total lysate after 12% acrylamide gel electrophoretic run have been transferred on nitrocellulose membrane and labelled with antibodies shown in the figure. (B) MDA-MB-468 cells, have been transfected using SIMP1 and SIMP5,6. peptides. Successively, cells have been washed and stimulated with 3 μM Adriamycin. Total obtained lysates (30 μg) have been assayed for the expression of PARP and BAX apoptotic proteins. Lysate has been normalized by assaying γ-tubulin expression. (C-D). Transactivation tests have been carried out by transient transfection of H1299 cells using a mixture containing lipofectamine, SIMP1, SIMP5,6 indicated plasmids (20 μM each) together with pLUC-BAX reporter vector. To each reaction mixture an equal amount of […] expression vector was added, in order to normalize the transfection efficiency. […]
To this end, we have analyzed the ability in blocking the His273 p53 induced inhibition on transcription activity. […]

GST-p53 His175 = GST-p53 His175 (Homo sapiens, UniProt P04637, R175H); experiment: Dot immunobinding test with purified GST-p53 fusion proteins; assay type: binding; details: 20 μg GST fusion purified proteins
Description: (A) Total extracts deriving from SKBR3, (His-175) HT29, (His-273) and H1299 (p53 free) tumour cells have been incubated (1 mg) on SIMP1 and SIMPIKO peptide labelled nitrocellulose membrane and Dot Blot analysed. In (B) the membranes have been incubated with 20 μg of wild type WT GST-p53 purified protein or GST-p53 His-175, GST-p53-His-175, 74-298 or GST alone. In both experiments dots have been detected by labelling the membranes with anti-p53 (DO1) antibody
Nitrocellulose membranes have been cut, washed with water and blotted on the paper filters. The peptides at 250 mM concentration have been transferred on membrane. Labelled membrane has been washed for 10 min. with TBST buffer (10 mM Tris-HCl pH 7.4, 150 mM NaCl, 0.05% (v/v) Tween-20) and then blocked for 45 min with TBST/5% milk. Then the membranes have been incubated for 6 hours at 4° C. in shaker with 1 mg of total protein extract or 20 μg of GST fusion purified proteins. Successively the membranes have been washed with TBST buffer and decorated with anti-p53 antibody (DO1) as a primary antibody. As secondary antibody horse peroxidase conjugated goat antibody has been used. Immunolabelled lanes have been detected using chemiluminescence analysis (Pierce).
The membranes decorated with SIMP peptides also have been incubated with GST-p53 His175, GST p53His74-298, GST WTp53 fusion proteins, GST control.

[3] = system: tumour cell lines containing His-175 or His-273 p53 mutation; experiment: Summary of activity by p53 mutation type; assay type: cell-based; details: FIG. 6 summary
Description: SIMP1M: FQQSSTARSATW (SEQ ID NO:16) (MW: 1369, PI: 9.75) peptide is a mutated version of SIMP1 peptide wherein K138 residue has been replaced by Arginine.
FIG. 6 that SIMP peptides and by-products thereof displace protein complexes involving mutated protein p53 and p73.

[4] = system: MDA-MB468 breast and HT29 colon carcinoma cell lines; experiment: Cell viability / proliferation assays after peptide transfection; assay type: cell-based, human; details: peptide transfected cells
Description: as §1
Cell viability has been tested using Trypan Blue exclusion assays.
We observed a reduction of cell proliferation in MDA-MB468 breast and HT29 colon carcinoma cell lines.

“FQQSSTAKSATW (p73 SIMP (aa 131-142)) [SIMP1]” was tested, and the “sensitivity to Adriamycin” value [1] was “made the same more sensitive to the treatment with Adriamycin”, the “restoration of p73 transcription activity inhibited by m-p53 His273” value [2] was “modify mutated p53/p73 protein complex restoring p73 oncosuppressive functions; also recorded: blocked the m-p53 His273 inhibition on p73 transcription activity” and the “reaction with GST-p53 fusion proteins (dot blot, anti-p53 DO1)” value (GST-p53 His175) was “no reaction was observed”. The “specificity for p53 mutation type” value [3] was “display specificity for His-273 mutation containing tumours” and the “cell proliferation in vitro” value [4] was “reduce the cell proliferation in vitro”.
